Each structure is given as a SMILES string. Some results are limits rather than exact numbers.

Type in all cases: in vitro ADME
The target in one experiment is T1, CYP1A2 (Homo sapiens, UniProt P05177).
T1 construct: from tissue; host or cells: pooled human liver microsomes
T1 sequence (P05177 1-516): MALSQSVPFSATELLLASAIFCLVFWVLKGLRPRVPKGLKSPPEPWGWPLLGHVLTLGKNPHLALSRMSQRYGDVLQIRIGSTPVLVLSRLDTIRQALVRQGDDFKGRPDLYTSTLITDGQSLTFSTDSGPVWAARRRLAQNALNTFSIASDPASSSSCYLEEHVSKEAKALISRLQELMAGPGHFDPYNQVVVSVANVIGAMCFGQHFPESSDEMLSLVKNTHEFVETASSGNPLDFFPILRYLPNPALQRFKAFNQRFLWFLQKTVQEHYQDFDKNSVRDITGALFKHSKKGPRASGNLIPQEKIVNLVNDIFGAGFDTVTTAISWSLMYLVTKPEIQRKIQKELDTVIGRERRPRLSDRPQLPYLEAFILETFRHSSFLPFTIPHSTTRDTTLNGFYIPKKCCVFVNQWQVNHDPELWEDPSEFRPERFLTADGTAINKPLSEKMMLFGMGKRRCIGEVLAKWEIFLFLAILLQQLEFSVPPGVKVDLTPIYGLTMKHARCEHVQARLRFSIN
Description: CYP-direct inhibition, CYP1A2. To be noted: human liver microsome; substrate ethoxy-resorufin; read-out: IC50 CYP-1A2. As for the experimental part:
(§1) Many drugs inhibit cytochrome P450 enzymes to cause clinically significant changes in the pharmacokinetics of other drugs. In vitro cytochrome P450 inhibition, can provide crucial information in evaluating potential clinical drug-drug interactions and is useful for focusing in vivo tests to areas of concern. The cytochrome P450 inhibition assay was developed by preparing a working cocktail solution consisting of six probe substrates 10 μM ethoxy-resorufin (CYP1A2), 100 μM rosiglitazone (CYP2C8), 50 μM diclofenac (CYP2C9), 300 μM S-mephenytoin (CYP2C19), 50 μM dextromethorphan (CYP2D6), and 20 μM midazolam (CYP3A4). A mixture solution consists of 140 uL of 0.286 mg/mL of pooled human liver microsome working solution and 20 uL working solutions of test articles, standard control inhibitors, or positive control placebo and 20 uL of substrate cocktail mixture working solution was prepared. The mixture solution was pre-warm in a gentle shaking bath at 37±2° C. for 5 minutes. The enzymatic reaction started by adding 20 uL of NRS working solution to the mixture solution and incubated for 10 minutes at 37±2° C. To stop the reaction, an addition of 400 μL cold stop solution (acetonitrile containing 50 ng/mL Tolbutamide as an internal standard (I.Std.) was added to the mixture solution. The final concentration of test article, inhibitors, substrates, and cofactors are noted in Table 0.1 below. Two individual samples were prepared for each test compound. The extracted samples were vortexed and then centrifuged at 4500 rpm for 7 minutes using Eppendorf Centrifuge 5910R. 200 uL of supernatant was diluting with 200 uL of 50% Methanol into 96-DW plate for LC/MS/MS analysis
(§2) Concentration-response plots are used to determine the effects of an inhibitor on an enzymatic reaction. A typical concentration-response plot provides fractional activity (Y axis) is plotted as a function of log inhibitor concentration (X axis). The data are fitted using a standard Sigmoidal dose-response equation which is also called a […] logistic equation. The concentration of compound that results in 50% inhibition of maximal activity is termed as the IC50 (inhibitor concentration yielding 50% inhibition). IC50 value is calculated using Prism GraphPad software, version 9. […].
(§3) Cytochrome P450 inhibition of a drug is a key factor in determining pharmacokinetic drug-drug interactions. The objective of this study was to evaluate the inhibition potential of G9a inhibitors on six (6) major human cytochrome P450 enzymes, including CYP1A2, CYP2C8, CYP2C9, CYP2C19, CYP2D6, and CYP3A4. Inhibition was determined by using a substrate cocktail and analyzing the rate of specific metabolites formation. The cytochrome P450 inhibition assay was developed using a cocktail consisting of six (6) probe substrates ethoxy-resorufin (CYP1A2), rosiglitazone (CYP2C8), diclofenac (CYP2C9), S-mephenytoin (CYP2C19), dextromethorphan (CYP2D6), and midazolam (CYP3A4). The cocktail was incubated in human liver microsome with NADPH regenerating system (NRS) in a shaking bath at 37±2° C. The formation of specific metabolites was monitored by LC/MS/MS. Test compound was added to the cocktail-liver microsome mixture at varying concentrations and its effect on cytochrome P450 activity was determined by analyzing the rate of specific metabolite formation. The percent inhibition was calculated and plotted with reference to the concentration, and the IC50 value for inhibition was derived by fitting the data with a using log(inhibitor) vs. normalized response with variable slope least squares fit by Graphpad Prism® software. […].

A further experiment concerns the target T2, CYP2D6 (Homo sapiens, UniProt P10635).
T2 construct: from tissue; host or cells: pooled human liver microsomes
Description: CYP-direct inhibition, CYP2D6. To be noted: human liver microsome; substrate dextromethorphan; read-out: IC50 CYP-2D6. The procedure: as §1, §2, §3

For the next experiment, the target named is T3, CYP3A4 (Homo sapiens, UniProt P08684).
T3 construct: from tissue; host or cells: pooled human liver microsomes
Description: CYP-direct inhibition, CYP3A4. The procedure:
as §1, §2, §3

T3 sequence (P08684 whole entry): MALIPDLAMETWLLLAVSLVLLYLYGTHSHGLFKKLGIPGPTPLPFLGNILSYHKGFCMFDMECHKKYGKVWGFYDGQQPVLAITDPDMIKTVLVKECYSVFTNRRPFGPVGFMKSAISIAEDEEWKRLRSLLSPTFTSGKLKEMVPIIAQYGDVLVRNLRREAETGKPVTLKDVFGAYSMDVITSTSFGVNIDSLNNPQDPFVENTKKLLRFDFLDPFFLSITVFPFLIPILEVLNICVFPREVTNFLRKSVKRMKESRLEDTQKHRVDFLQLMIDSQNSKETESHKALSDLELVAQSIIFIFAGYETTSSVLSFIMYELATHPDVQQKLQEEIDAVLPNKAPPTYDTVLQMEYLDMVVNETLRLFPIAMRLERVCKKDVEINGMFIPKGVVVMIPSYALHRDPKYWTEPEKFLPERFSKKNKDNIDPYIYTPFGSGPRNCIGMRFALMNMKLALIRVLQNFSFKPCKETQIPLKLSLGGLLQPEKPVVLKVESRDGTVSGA
T2 sequence (P10635 whole entry): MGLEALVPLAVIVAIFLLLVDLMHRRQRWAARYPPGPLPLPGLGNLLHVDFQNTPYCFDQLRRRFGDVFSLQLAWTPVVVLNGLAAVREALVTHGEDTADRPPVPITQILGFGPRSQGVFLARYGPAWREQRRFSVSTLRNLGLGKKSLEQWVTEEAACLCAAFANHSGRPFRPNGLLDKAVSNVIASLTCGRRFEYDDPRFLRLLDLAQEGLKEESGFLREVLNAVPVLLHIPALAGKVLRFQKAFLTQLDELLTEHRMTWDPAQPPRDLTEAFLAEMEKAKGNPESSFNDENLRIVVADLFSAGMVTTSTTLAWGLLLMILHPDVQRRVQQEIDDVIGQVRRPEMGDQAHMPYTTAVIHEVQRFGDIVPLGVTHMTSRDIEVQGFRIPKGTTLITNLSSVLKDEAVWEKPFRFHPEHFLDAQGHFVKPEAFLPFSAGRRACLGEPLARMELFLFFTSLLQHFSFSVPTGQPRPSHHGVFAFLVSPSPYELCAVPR

Consider `COc1cc2c(NC3CCS(=O)(=O)CC3)nc(N3CCC(F)(F)CC3)nc2cc1OCCCN1CCCC1` [Compound 1, 4-((2-(4,4-difluoropiperidin-1-yl)-6-methoxy-7-(3-(pyrrolidin-1-yl)propoxy)quinazolin-4-yl)amino)tetrahydro-2H-thiopyran 1,1-dioxide], for which the concentration for half-maximal inhibition (IC50) at CYP1A2 was over 100 µM; at CYP2D6 it was 21.9 µM; on CYP3A4, over 100 µM.
As for `COc1cc2c(NC3CCOCC3)nc(N3CCC(F)(F)CC3)nc2cc1OCCCN1CCCC1` [Compound 2, 2-(4,4-difluoropiperidin-1-yl)-6-methoxy-7-(3-(pyrrolidin-1-yl)propoxy)-N-(tetrahydro-2H-pyran-4-yl)quinazolin-4-amine], the IC50 was over 100 µM at CYP1A2, 17.6 µM at CYP2D6 and over 100 µM on CYP3A4.
On to `COCCN1CCC(Nc2nc(N3CCC(F)(F)CC3)nc3cc(OCCCN4CCCC4)c(OC)cc23)CC1` [Compound 3, 2-(4,4-difluoropiperidin-1-yl)-6-methoxy-N-(1-(2-methoxyethyl)piperidin-4-yl)-7-(3-(pyrrolidin-1-yl)propoxy)quinazolin-4-amine], for which the 50% inhibitory concentration (IC50) on CYP1A2 is over 100 µM; on CYP2D6, 9.55 µM; against CYP3A4 it was over 100 µM.
Take `COCCNc1nc(N2CCC(F)(F)CC2)nc2cc(OCCCN3CCCC3)c(OC)cc12` [Compound 4, 2-(4,4-difluoropiperidin-1-yl)-6-methoxy-N-(2-methoxyethyl)-7-(3-(pyrrolidin-1-yl)propoxy)quinazolin-4-amine]: the concentration for half-maximal inhibition (IC50) at CYP1A2 was over 100 µM; on CYP2D6, 13.3 µM; against CYP3A4 it was over 100 µM.
On to `COc1cc2c(NCC3CCN(C)CC3)nc(N3CCC(F)(F)CC3)nc2cc1OCCCN1CCCC1` [Compound 5, 2-(4,4-difluoropiperidin-1-yl)-6-methoxy-N-((1-methylpiperidin-4-yl)methyl)-7-(3-(pyrrolidin-1-yl)propoxy)quinazolin-4-amine], for which the 50% inhibitory concentration (IC50) at CYP1A2, at CYP2D6 and at CYP3A4 was over 100 µM each time.
In the case of `COc1cc2c(Nc3ccncc3)nc(N3CCC(F)(F)CC3)nc2cc1OCCCN1CCCC1` [Compound 7, 2-(4,4-difluoropiperidin-1-yl)-6-methoxy-N-(pyridin-4-yl)-7-(3-(pyrrolidin-1-yl)propoxy)quinazolin-4-amine], the IC50 at CYP1A2 was over 100 µM; at CYP2D6 it was 12 µM; against CYP3A4 it was over 100 µM.
Turning to `COc1cc2c(NC3CCNCC3)nc(N3CCC(F)(F)CC3)nc2cc1OCCCN1CCCC1` [Compound 8, 2-(4,4-difluoropiperidin-1-yl)-6-methoxy-N-(piperidin-4-yl)-7-(3-(pyrrolidin-1-yl)propoxy)quinazolin-4-amine], the 50% inhibitory concentration (IC50) at CYP1A2, at CYP2D6 and against CYP3A4 was over 100 µM throughout.
Turning to `COc1cc2c(NCC(N)=O)nc(N3CCC(F)(F)CC3)nc2cc1OCCCN1CCCC1` [Compound 9, 2-((2-(4,4-difluoropiperidin-1-yl)-6-methoxy-7-(3-(pyrrolidin-1-yl)propoxy)quinazolin-4-yl)amino)acetamide], the IC50 on CYP1A2, at CYP2D6 and on CYP3A4 was over 100 µM throughout.
For the compound `COc1cc2c(NC3COC3)nc(N3CCC(F)(F)CC3)nc2cc1OCCCN1CCCC1` [Compound 11, 2-(4,4-difluoropiperidin-1-yl)-6-methoxy-N-(oxetan-3-yl)-7-(3-(pyrrolidin-1-yl)propoxy)quinazolin-4-amine], the concentration for half-maximal inhibition (IC50) on CYP1A2 is over 100 µM; on CYP2D6, 29.5 µM; against CYP3A4, over 100 µM.
On to `COc1cc2c(NC3CCS(=O)(=O)CC3)nc(N3CCCC3)nc2cc1OCCCN1CCCC1` [Compound 80, 4-((6-methoxy-2-(pyrrolidin-1-yl)-7-(3-(pyrrolidin-1-yl)propoxy)quinazolin-4-yl)amino)tetrahydro-2H-thiopyran 1,1-dioxide], for which the half-maximal inhibitory concentration (IC50) is over 100 µM at CYP1A2, 43 µM at CYP2D6 and over 100 µM on CYP3A4.
Regarding `COc1cc2c(NC3CCS(=O)(=O)CC3)nc(N3CCOCC3)nc2cc1OCCCN1CCCC1` [Compound 102, 4-((6-methoxy-2-morpholino-7-(3-(pyrrolidin-1-yl)propoxy)quinazolin-4-yl)amino)tetrahydro-2H-thiopyran 1,1-dioxide], the concentration for half-maximal inhibition (IC50) at CYP1A2 is over 100 µM; at CYP2D6 it was 29 µM; at CYP3A4, over 100 µM.
With `COc1cc2c(NC3CCS(=O)(=O)CC3)nc(N3CCS(=O)(=O)CC3)nc2cc1OCCCN1CCCC1` [Compound 103, 4-(4-((1,1-dioxidotetrahydro-2H-thiopyran-4-yl)amino)-6-methoxy-7-(3-(pyrrolidin-1-yl)propoxy)quinazolin-2-yl)thiomorpholine 1,1-dioxide], the IC50 on CYP1A2, on CYP2D6 and on CYP3A4 was over 100 µM in each case.
As to `COc1cc2c(NC3CCS(=O)(=O)CC3)nc(N3CCN(C)CC3)nc2cc1OCCCN1CCCC1` [Compound 109, 4-((6-methoxy-2-(4-methylpiperazin-1-yl)-7-(3-(pyrrolidin-1-yl)propoxy)quinazolin-4-yl)amino)tetrahydro-2H-thiopyran 1,1-dioxide], the half-inhibitory concentration (IC50) on CYP1A2, on CYP2D6 and at CYP3A4 was over 100 µM in each case.
As for `COc1cc2c(NC3CCS(=O)(=O)CC3)nc(N3CCCN(C)CC3)nc2cc1OCCCN1CCCC1` [Compound 110, 4-((6-methoxy-2-(4-methyl-1,4-diazepan-1-yl)-7-(3-(pyrrolidin-1-yl)propoxy)quinazolin-4-yl)amino)tetrahydro-2H-thiopyran 1,1-dioxide], the concentration for half-maximal inhibition (IC50) on CYP1A2, at CYP2D6 and against CYP3A4 was over 100 µM throughout.
Consider `COc1cc2c(Nc3ccncc3)nc(-n3ccnc3)nc2cc1OCCCN1CCCC1` [Compound 130, 2-(1H-imidazol-1-yl)-6-methoxy-N-(pyridin-4-yl)-7-(3-(pyrrolidin-1-yl)propoxy)quinazolin-4-amine], for which the values for the IC50 at CYP1A2, at CYP2D6 and at CYP3A4 were 10.4 µM, 4.88 µM and 3.85 µM, respectively.
With `COc1cc2c(NC3CCN(C(C)C)CC3)nc(-n3ccnc3)nc2cc1OCCCN1CCCC1` [Compound 156, 2-(1H-imidazol-1-yl)-N-(1-isopropylpiperidin-4-yl)-6-methoxy-7-(3-(pyrrolidin-1-yl)propoxy)quinazolin-4-amine], the figures for the IC50 on CYP1A2, at CYP2D6 and against CYP3A4 were over 100 µM, 4.72 µM and over 100 µM, respectively.
In the case of `COc1cc2c(NC3CCN(C(C)C)CC3)nc(-n3cccn3)nc2cc1OCCCN1CCCC1` [Compound 157, N-(1-isopropylpiperidin-4-yl)-6-methoxy-2-(1H-pyrazol-1-yl)-7-(3-(pyrrolidin-1-yl)propoxy)quinazolin-4-amine], the figures for the IC50 at CYP1A2, at CYP2D6 and against CYP3A4 were over 100 µM, 64.9 µM and over 100 µM, respectively.

Values taken from patent US11485728B2, “Small molecules for the treatment of autoimmune diseases and cancer” (Athos Therapeutics, Inc., priority 2020, dated 2022).
